These results are taken from patent US20240293558A1, “KRAS INHIBITOR CONJUGATES” (Erasca, Inc., priority 2021, published 2024).

For one assay, the target named is KRAS G12D (Homo sapiens, UniProt P01116, G12D). Kind of assay: In-vitro RAS-RAF binding assay (RRB), HTRF/FRET. The class given is biochemical. Further details: Biotinylated KRAS protein amino acids 1-169 (produced at Erasca); made in house. Conditions: Table 2, average of multiple runs of each compound; read-out: Inhibition of RAS-RAF Binding (in-vitro) KRAS (G12D) IC50. The procedure, abridged: (§1)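 Biotinylated KRAS 1-169 (streptavidin-terbium donor, 30 nM) and GST-cRAF RBD (anti-GST d2 acceptor, 30 nM) in HEPES pH 7.5, NaCl, MgCl2, DTT buffer. After compound incubation, SOS1 catalytic domain plus GTPgS drive 60 min nucleotide exchange. HTRF FRET read at equilibrium, in duplicate.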
Sequence of KRAS G12D (P01116 1-169 isoform P01116-2 G12D): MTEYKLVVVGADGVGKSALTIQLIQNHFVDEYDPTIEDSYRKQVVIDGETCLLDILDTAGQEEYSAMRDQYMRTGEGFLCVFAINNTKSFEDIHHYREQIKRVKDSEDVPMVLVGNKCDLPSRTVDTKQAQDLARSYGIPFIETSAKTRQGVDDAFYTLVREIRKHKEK

Assay [1] addresses T1, KRas G12D fused to HiBiT peptide (Homo sapiens, UniProt P01116, G12D).
T1 construct: endogenous in cells; host or cells: AsPC-1 HiBiT knock-in single clone (Cas9 RNP + ssODN)
The assay can be described thus: ASPC-1 HiBit assay to determine G12D degradation. The class given is cell-based. Particulars: AsPC-1 HiBiT cells, 24-hour incubation; read-out: ASPC-1 HiBit DC50 (C). The method, then: Compounds presented herein induce degradation of the KRas G12D (KRasG12D) upon treatment of engineered cancer cell line.
The degradation of the KRasG12D in cellular environment was measured using engineered homozygous KRasG12D AsPC-1 cell line in which KRas G12D was fused to luminescent HiBiT peptide at the N-terminal. The small (1.3 kDa) HiBiT peptide complements with high affinity to a larger (18 kDa) subunit evolved from NanoLuc (termed LgBiT). The resulting complex (i.e., reconstituted luciferase enzyme) generates bright luminescence that translates to high sensitivity (1 amol), broad dynamic range (four orders of magnitude), and rapid kinetics for real time quantitation.
To generate HiBit KRasG12D knock-in cell line, sgRNA (SEQ. ID NO: 1) and ssODN (SEQ. ID NO: 2) were designed and synthesized at GenScript.
RNP complex was generated by mixing of 100 pmol of Cas9 protein to PCR tubes containing 300 pmol sgRNA incubating the resultant complex at room temperature for 20 min. […] ssODN was added to RNP complex slowly and RNP-ssODN complex was incubated at room temperature for 10 min. RNP-ssODN complex was mixed with […] of AsPC-1 cells (1×10^6 cells total) and electroporated using Nucleofactor (Program CM-150). Cells were then incubated at ambient temperature for 5 min and transferred to a six-well plate containing 2 ml growth medium.
To select pools with the highest luminescence signal, 10^4 cells of parental AsPC-1 and transfected pools were plated in solid white 384-well tissue culture plates. 24 hours after seeding, HiBiT was detected using the Nano-Glo HiBiT Lytic Detection System (Promega) following manufacturer's instructions. Briefly, […] of Nano-Glo HiBiT Lytic Detection Reagent was added directly to the cells and mixed by inversion before recording luminescence on an Envision (Perkin-Elmer) with 0.5 s integration time.
Single clones were isolated from stable pool by limited dilution method and presence of HiBiT knock-in was verified by TA cloning and subsequent sequencing. Additionally, western blotting analysis was conducted to confirm selection of single clones with high luminescence signal.
For DC50S measurements, AsPC-1 HiBiT single clone cells were grown in RPMI 1640 medium (Invitrogen 22400-089) supplemented with 10% fetal bovine serum. Cells were seeded in 384-well tissue culture plates at a density of 7,000 cells/well and allowed to attach for 24 hours.
Test compounds were distributed directly into assay plate with the adjustment for DMSO concentration using Tecan HP D300e. For most of the experiments, the final concentration of compounds starts from 10 μM, 3-fold dilution dose response and 10 doses. […] DMSO final concentration is 1%. Each concentration of exemplary compound was tested as singleton. The negative control wells were cells with DMSO only, and the positive control wells were cells with […] inhibitor.
Following 24-hour incubation with the compounds plate and Nano-Glo® HiBiT Lytic reagents were equilibrated to room temperature. 20 μL of HiBiT Lytic reagent were added to each well. The assay plate was incubated on digital microplate shaker (350 rpm) for 20 min followed by centrifugation at 500 g for 1 min. Luminescence was recorded using Envision (Perkin-Elmer) using aperture 384-L1 with 0.1 s integration time.
HiBiT signal are used to calculate the % degradation at given compound concentration using the following formula:
% Degradation=(1−(Sample HiBiT signal−Ave Min signal)/(Ave Max signal−Ave Min signal))*100%
For DC50 calculation, the data with the hook effect were removed first and DC50S was reported using a 4-parameter fit of dose response curve using GraphPad in those cases where maximum % degradation was >50% and Minimal % degradation was <50%. The decrease in DC50 reflects that the exemplary compound led to a higher level of degradation of KRasG12D than another exemplary compound at specific timepoint of treatment of cancer cell line. […]
On the technique in general: With HiBiT, luminescence reflects the tagged protein that the partner subunit can reach.

A further assay deals with T2, KRAS (WT) (Homo sapiens, UniProt P01116).
T2 construct: Biotinylated KRAS protein amino acids 1-169 (produced at Erasca); made in house
T2 sequence (P01116 1-169 isoform P01116-2): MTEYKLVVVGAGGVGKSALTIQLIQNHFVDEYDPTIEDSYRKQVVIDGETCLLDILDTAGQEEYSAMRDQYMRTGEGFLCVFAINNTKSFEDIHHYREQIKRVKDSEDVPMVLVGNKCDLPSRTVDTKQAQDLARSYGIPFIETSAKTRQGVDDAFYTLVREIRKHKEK
Kind of assay: In-vitro RAS-RAF binding assay (RRB), HTRF/FRET. It is filed as biochemical. Conditions: Table 2, average of multiple runs of each compound; read-out: Inhibition of RAS-RAF Binding (in-vitro) KRAS (WT) IC50. The method, boiled down: as §1

Structures are written as SMILES.

T1 sequence (P01116 1-188 isoform P01116-2 G12D): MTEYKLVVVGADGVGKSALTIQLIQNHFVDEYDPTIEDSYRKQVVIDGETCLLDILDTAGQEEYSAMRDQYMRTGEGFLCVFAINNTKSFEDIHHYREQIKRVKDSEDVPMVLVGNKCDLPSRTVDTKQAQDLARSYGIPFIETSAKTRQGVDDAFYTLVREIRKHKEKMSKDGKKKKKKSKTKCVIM

Take `C[C@H](NC(=O)[C@@H]1C[C@@H](O)CN1C(=O)[C@@H](NC(=O)CCOCCCN1CCC[C@H]1COc1nc(N2CC3CCC(C2)N3)c2cc(C(F)(F)F)c(-c3ccc(F)c4sc(N)c(C#N)c34)c(F)c2n1)C(C)(C)C)c1ccc(-c2cccc(F)c2F)cc1` [Example 94, (2S,4R)-1-((2S)-2-(3-(3-((2S)-2-((((7S)-7-(2-amino-3-cyano-7-fluorobenzo [b]thiophen-4-yl)-4-(3,8-diazabicyclo[3.2.1]octan-3-yl)-8-fluoro-6-(trifluoromethyl)quinazolin-2-yl)oxy)methyl)pyrrolidin-1-yl)propoxy)propanamido)-3,3-dimethylbutanoyl)-N—((S)-1-(2′,3′-difluoro-[1,1′-biphenyl]-4-yl)ethyl)-4-hydroxypyrrolidine-2-carboxamide]: the half-maximal inhibitory concentration (IC50) (usually the point on the concentration scale where inhibition reaches its midpoint) at KRAS G12D worked out at 0.0092 µM; at KRAS (WT), 0.067 µM. The DC50 (as a rule, the concentration at which degradation of the target reaches its halfway point) in assay [1] stood at 0.038 µM.

Take `C[C@H](NC(=O)[C@@H]1C[C@@H](O)CN1C(=O)[C@@H](NC(=O)CCOCCCN1CCC[C@H]1COc1nc(N2CC3CCC(C2)N3)c2cc(C(F)(F)F)c(-c3ccc(F)c4sc(N)c(C#N)c34)c(F)c2n1)C(C)(C)C)c1ccc(-c2ccccc2Cl)cc1` [Example 95, (2S,4R)-1-((2S)-2-(3-(3-((2S)-2-((((7S)-7-(2-amino-3-cyano-7-fluorobenzo [b]thiophen-4-yl)-4-(3,8-diazabicyclo [3.2.1]octan-3-yl)-8-fluoro-6-(trifluoromethyl)quinazolin-2-yl)oxy)methyl)pyrrolidin-1-yl)propoxy)propanamido)-3,3-dimethylbutanoyl)-N—((S)-1-(2′-chloro-[1,1′-biphenyl]-4-yl)ethyl)-4-hydroxypyrrolidine-2-carboxamide]: the concentration for half-maximal inhibition (IC50) was found to be 0.0085 µM at KRAS G12D and 0.065 µM at KRAS (WT). In assay [1], the 50% degradation concentration (DC50) was 0.043 µM.

For the compound `C[C@H](NC(=O)[C@@H]1C[C@@H](O)CN1C(=O)[C@@H](NC(=O)CCOCCCN1CCC[C@H]1COc1nc(N2CC3CCC(C2)N3)c2cc(Cl)c(-c3ccc(F)c4sc(N)c(C#N)c34)c(F)c2n1)C(C)(C)C)c1ccc(-c2ccccc2Cl)cc1` [Example 96, (2S,4R)-1-((2S)-2-(3-(3-((2S)-2-((((7R)-7-(2-amino-3-cyano-7-fluorobenzo[b]thiophen-4-yl)-4-(3,8-diazabicyclo[3.2.1]octan-3-yl)-6-chloro-8-fluoroquinazolin-2-yl)oxy)methyl)pyrrolidin-1-yl)propoxy)propanamido)-3,3-dimethylbutanoyl)-N—((S)-1-(2′-chloro-[1,1′-biphenyl]-4-yl)ethyl)-4-hydroxypyrrolidine-2-carboxamide], the half-maximal inhibitory concentration (IC50) on KRAS G12D was found to be 0.0092 µM; on KRAS (WT), 0.156 µM. Besides, the half-maximal degradation concentration (DC50) in assay [1] amounted to 0.075 µM.

As to `CC(C)[C@@H](C(=O)N1C[C@H](O)C[C@H]1C(=O)N[C@@H](C)c1ccc(-c2c(F)cccc2F)cc1)c1cc(N2CC3(CCN(CCOc4nc(N5CC6CCC(C5)N6)c5cc(Cl)c(-c6ccc(F)c7sc(N)c(C#N)c67)c(F)c5n4)CC3)C2)no1` [Example 70, (2S,4R)-1-((2R)-2-(3-(7-(2-((7-(2-amino-3-cyano-7-fluorobenzo[b]thiophen-4-yl)-4-(3,8-diazabicyclo[3.2.1]octan-3-yl)-6-chloro-8-fluoroquinazolin-2-yl)oxy)ethyl)-2,7-diazaspiro [3.5]nonan-2-yl)isoxazol-5-yl)-3-methylbutanoyl)-N-((S)-1-(2′,6′-difluoro-[1,1′-biphenyl]-4-yl)ethyl)-4-hydroxypyrrolidine-2-carboxamide], the IC50 was found to be 0.0286 µM at KRAS G12D and 5.5 µM at KRAS (WT). In addition, in assay [1], the DC50 worked out at 0.501 µM.
